“And” between values parts separate entries of the source, which are not always exact repeats. Equal values may be shown once.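 Interpolation was linear, between the two tested concentrations surrounding the appropriate level; five concentrations were tested over 48 hours in 96-well plates. GI50 = concentration required for 50% inhibition of growth. At the TGI there is no net growth.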
Experiments:
Assay in all cases: NCI anticancer screen, dose series, 48 h
EKVX NSCLC = tested on: EKVX NSCLC
SN12C renal = tested on: SN12C renal
A549 NSCLC = tested on: A549 NSCLC
SNB-19 CNS = tested on: SNB-19 CNS
OVCAR-4 ovarian = tested on: OVCAR-4 ovarian
OVCAR-3 ovarian = tested on: OVCAR-3 ovarian
HT29 colon = tested on: HT29 colon
SF-268 CNS = tested on: SF-268 CNS
NCI-H226 lung = tested on: NCI-H226 lung
M14 melanoma = tested on: M14 melanoma

Compound	TGI (EKVX NSCLC) [µM]	TGI (SN12C renal)	TGI (A549 NSCLC)	TGI (SNB-19 CNS) [µM]	TGI (OVCAR-4 ovarian) [µM]	TGI (OVCAR-3 ovarian)	TGI (HT29 colon)	TGI (SF-268 CNS)	TGI (NCI-H226 lung)	TGI (M14 melanoma)	GI50 (EKVX NSCLC)	GI50 (SN12C renal)	GI50 (A549 NSCLC)	GI50 (SNB-19 CNS)	GI50 (OVCAR-4 ovarian)	GI50 (OVCAR-3 ovarian)	GI50 (HT29 colon)	GI50 (SF-268 CNS)	GI50 (NCI-H226 lung)	GI50 (M14 melanoma)
COc1ccc(NC(=O)Oc2ccc3c(C)cc(=O)oc3c2)c(OC)c1 (tested in a mixture with another compound)	> 100	> 100 µM	> 100 µM	> 100	> 100	> 100 µM	> 100 µM	> 100 µM	> 100 µM	> 100 µM										
Cc1ccc(S(=O)(=O)ON2C(=O)c3cccc4cc([N+](=O)[O-])cc(c34)C2=O)cc1	> 100	> 100 µM	> 100 µM	> 100	> 100	> 100 µM	79.3 µM	> 100 µM	> 100 µM	> 100 µM										
COc1ccc2cc(-c3cnc4nonc4n3)ccc2c1	> 100	> 100 µM	> 100 µM	> 100	> 100	56.9 µM	> 100 µM	> 100 µM	> 100 µM	6.38 µM	0.83 µM	5.28 µM	3.33 µM	4.37 µM	5.99 µM	0.982 µM	2.97 µM	8.59 µM	6.43 µM	1.91 µM
COc1ccc(-c2ncnc3c2ncn3CC#CCCl)cc1	29.6	6.32 µM	30.7 µM	18.1	12.5	5.75 µM	24.6 µM	4.13 µM	26.2 µM	17.4 µM	12.8 µM	2.26 µM	7.39 µM	4.87 µM	2.66 µM	1.93 µM	7.12 µM	1.66 µM	4.45 µM	4.55 µM
COC(=O)/C=C1/SC(=Nc2cccc(Cl)c2)N(CCc2c[nH]c3ccc(O)cc23)C1=O	5.51	3.67 µM	6.95 µM	6.88	4.44	3.23 µM	3.57 µM	4.47 µM	3.08 µM	3.36 µM	2.19 µM	1.79 µM	2.65 µM	2.57 µM	1.4 µM	1.54 µM	1.87 µM	1.76 µM	1.65 µM	1.62 µM
CC(Oc1ccc2c(-c3ccc(Cl)cc3)cc(=O)oc2c1)C(=O)O (configuration not stated)	> 100	> 100 µM	> 100 µM	> 100	> 100	> 100 µM	> 100 µM	> 100 µM	> 100 µM	> 100 µM										
CC(C)(C)OC(=O)C1C(=O)NC(=O)CC1CC(OCc1ccccc1)C(OCc1ccccc1)C(COCc1ccccc1)OCc1ccccc1 (configuration not stated)	> 100	> 100 µM	> 100 µM and 28.5 µM	> 100	> 100	> 100 µM	> 100 µM and 23.5 µM	> 100 µM	> 100 µM	> 100 µM	62.2 µM and 12.6 µM	95 µM and 36.4 µM	26 µM and 5.23 µM	77.1 µM and 35.6 µM				46.8 µM and 16.1 µM	33 µM and 14 µM	55.1 µM and 27.2 µM
COc1ccc(Br)cc1NC(=O)Nc1cccc2c1ccn2Cc1ccnc(N)c1	> 100	30.8 µM and > 10 µM	22.7 µM and > 10 µM	> 85.7	> 47.8	23.6 µM and > 10 µM	8.09 µM and > 10 µM	32.5 µM and > 10 µM	48.4 µM and > 10 µM	10.5 µM and > 10 µM	7.36 µM and 9.64 µM	5.48 µM and 7.26 µM	5.64 µM and > 10 µM	13.6 µM and > 10 µM	3.85 µM and 5.52 µM	8.98 µM and > 10 µM	2.59 µM and 2.24 µM	6.16 µM and > 10 µM	6.45 µM and 8.39 µM	3.09 µM and 2.68 µM
COC[C@H](NC(=O)c1cnc(C)s1)C(=O)N[C@@H](COC)C(=O)N[C@@H](Cc1ccccc1)C(=O)[C@@]1(C)CO1	> 100	> 100 µM	> 100 µM	> 100	> 100	> 86.3 µM	> 75.7 µM	> 100 µM	46.6 µM	> 69.8 µM	44.4 µM	37.6 µM	42.9 µM	> 65.3 µM	44.4 µM	27.5 µM	21.1 µM	48.4 µM	17.4 µM	24.3 µM
CCOC(=O)C(=Cc1ccc(C#N)cc1)C(=O)OCC	17.6	4.71 µM	14.5 µM	7.7	12.6	4.39 µM	3.77 µM	7.57 µM	6.33 µM	4.26 µM	4.83 µM	1.81 µM	4.11 µM	2.66 µM	3.44 µM	2.01 µM	1.93 µM	2.29 µM	2.51 µM	1.89 µM
Cc1ccc(CNc2ccc3nc(CCC4CCCCC4)[nH]c3c2)cc1	6.47	11.4 µM	17.6 µM	> 100	18.7	11.4 µM	5.19 µM	> 100 µM	3.92 µM	3.9 µM	2.12 µM	2.77 µM	3.02 µM	3.54 µM	3.23 µM	3.06 µM	1.88 µM	3.08 µM	1.77 µM	1.91 µM
CCC[CH2][Sn](=[O])[CH2]CCC	> 50	> 50 µM	> 50 µM	> 50	> 50	> 50 µM	> 50 µM	> 50 µM	> 50 µM	> 50 µM	> 50 µM	> 50 µM	> 50 µM	> 50 µM	> 50 µM	> 50 µM	> 50 µM	> 50 µM	> 50 µM	> 50 µM
Cc1ccc(OP(=O)(Oc2ccc(C)cc2)N2C=Cc3ccccc3C2C#N)cc1 (configuration not stated)	> 100	> 100 µM	> 100 µM	> 100	> 100	> 100 µM	> 100 µM	> 100 µM	> 100 µM	> 100 µM										
O=C1c2ccccc2C(=O)N1CCc1ncc(-c2ccccc2)[nH]1	> 100	> 100 µM	> 100 µM	> 100	> 100	> 100 µM	> 100 µM	> 100 µM	> 100 µM	> 100 µM										
